# According to paper PMC7956382 (Molecules, 2021):
# System: muscle nAChR-expressing cells
# Format: cell-based, mouse
substance,measurement,value
α-bungarotoxin [α-Bgt],Inhibition of calcium transients,No transients were recorded
